Results published in PubChem BioAssay AID1963430 (Molecular Pharmacology Branch, DTP, NCI, 2024).
pIC50: −log10 of the molar value. Several values for one entry are separate records, joined by “and”; a condition that tells them apart may be missing. Equal values may be shown once.

Tested on: 521955-158-R2-J5-PDC complex spheroid growth, % test/control
Experiment: Anticancer human tumor 521955-158-R2-J5-PDC patient-derived pancreatic carcinoma cell line growth inhibition [Asc]
Conditions: for viability, T/C: stronger effect = lower value
Summary of the method: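 Complex spheroids combining tumor cells with HUVEC endothelial cells and human MSCs, at 37 degrees C, 5% CO2; agents tested alone or combined, half-log dilutions from at or near clinical Cmax, or 10 microM if Cmax unknown.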

[1] = curve of first compound, second compound 0.01 µM
[2] = curve of first compound, second compound 0.0316 µM
[3] = curve of first compound, second compound 0.1 µM
[4] = curve of first compound, second compound 0.316 µM
[5] = curve of first compound, second compound 1 µM
[6] = second compound 0.01 µM, first compound 0.0316 µM
[7] = second compound 0.01 µM, first compound 0.1 µM
[8] = second compound 0.01 µM, first compound 0.316 µM
[9] = second compound 0.01 µM, first compound 1 µM
[10] = second compound 0.0316 µM, first compound 0.0316 µM
[11] = second compound 0.0316 µM, first compound 0.1 µM
[12] = second compound 0.0316 µM, first compound 0.316 µM
[13] = second compound 0.0316 µM, first compound 1 µM
[14] = second compound 0.1 µM, first compound 0.0316 µM
[15] = second compound 0.1 µM, first compound 0.1 µM
[16] = second compound 0.1 µM, first compound 0.316 µM
[17] = second compound 0.1 µM, first compound 1 µM
[18] = second compound 0.316 µM, first compound 0.0316 µM
[19] = second compound 0.316 µM, first compound 0.1 µM
[20] = second compound 0.316 µM, first compound 0.316 µM
[21] = second compound 0.316 µM, first compound 1 µM
[22] = second compound 1 µM, first compound 0.0316 µM
[23] = second compound 1 µM, first compound 0.1 µM
[24] = second compound 1 µM, first compound 0.316 µM
[25] = second compound 1 µM, first compound 1 µM
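Further: spheroids exposed to agents for 7 days before readout.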
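Wherever viability, T/C is given: 100% = DMSO vehicle control viability.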

Cn1ncnc1[C@H]1c2n[nH]c(=O)c3cc(F)cc(c23)N[C@@H]1c1ccc(F)cc1 was tested, and the viability, T/C (compound 0.000316 µM) was 106% and 99.6% and 79.6%, the viability, T/C (compound 0.001 µM) was 81.4% and 87.9% and 79.3% and the viability, T/C (compound 0.00316 µM) was 68.4% and 93.3% and 73.6%. The viability, T/C (compound 0.01 µM) was 76.5% and 83.7% and 68.9%, the viability, T/C (compound 0.0316 µM) was 81.5% and 76.8% and 63.5% and the viability, T/C (compound 0.1 µM) was 57.7% and 68.6% and 70.2%. For the same compound, the pIC50 (curve of compound) was less than 7.00.
O=C(c1ccc(F)c(F)c1Nc1ccc(I)cc1F)N1CC(O)([C@@H]2CCCCN2)C1 + CNC(C)C(=O)NC1CN(S(=O)(=O)c2cccc(S(=O)(=O)N3CCC4CCC(C(=O)NC(c5ccccc5)c5ccccc5)N4C(=O)C(NC(=O)C(C)NC)C3)c2)CCC2CCC(C(=O)NC(c3ccccc3)c3ccccc3)N2C1=O gave a pIC50 [1] of 7.80, a pIC50 [2] of 7.74 and a pIC50 [3] of 7.84. The pIC50 [4] was 7.58, the pIC50 [5] was 7.80 and the viability, T/C (second compound 0.01 µM, first compound 0.00316 µM) was 61.2%. It also gave a viability, T/C (second compound 0.01 µM, first compound 0.01 µM) of 57.2%, a viability, T/C [6] of 38.5% and a viability, T/C [7] of 35.7%. It also gave a viability, T/C [8] of 17.7%, a viability, T/C [9] of 20.2% and a viability, T/C (second compound 0.0316 µM, first compound 0.00316 µM) of 76.8%. For the same compound, the viability, T/C (second compound 0.0316 µM, first compound 0.01 µM) was 56.4%, the viability, T/C [10] was 46.5% and the viability, T/C [11] was 26.9%. The viability, T/C [12] was 25.5%, the viability, T/C [13] was 18.8% and the viability, T/C (second compound 0.1 µM, first compound 0.00316 µM) was 66.4%. The viability, T/C (second compound 0.1 µM, first compound 0.01 µM) was 44.7%, the viability, T/C [14] was 53.5% and the viability, T/C [15] was 29.4%. For the same compound, the viability, T/C [16] was 19.7%, the viability, T/C [17] was 20.8% and the viability, T/C (second compound 0.316 µM, first compound 0.00316 µM) was 61.6%. It also gave a viability, T/C (second compound 0.316 µM, first compound 0.01 µM) of 60.3%, a viability, T/C [18] of 48% and a viability, T/C [19] of 28%. It also gave a viability, T/C [20] of 18.9%, a viability, T/C [21] of 18.3% and a viability, T/C (second compound 1 µM, first compound 0.00316 µM) of 67.1%. The viability, T/C (second compound 1 µM, first compound 0.01 µM) was 53.4%, the viability, T/C [22] was 43.5% and the viability, T/C [23] was 28.2%. For the same compound, the viability, T/C [24] was 17.4% and the viability, T/C [25] was 17.3%.
Work on C#Cc1c(F)ccc2cc(O)cc(-c3ncc4c(N5CC6CCC(C5)N6)nc(OCC56CCCN5CC(F)C6)nc4c3F)c12 (configuration not stated) + CNC(C)C(=O)NC1CN(S(=O)(=O)c2cccc(S(=O)(=O)N3CCC4CCC(C(=O)NC(c5ccccc5)c5ccccc5)N4C(=O)C(NC(=O)C(C)NC)C3)c2)CCC2CCC(C(=O)NC(c3ccccc3)c3ccccc3)N2C1=O yielded a pIC50 [1] greater than 7.50, a pIC50 [2] greater than 7.50 and a pIC50 [3] greater than 7.50. For the same compound, the pIC50 [4] was greater than 7.50, the pIC50 [5] was greater than 7.50 and the viability, T/C [6] was 22.8%. For the same compound, the viability, T/C [7] was 22.5%, the viability, T/C [8] was 20.6% and the viability, T/C [9] was 16.3%. For the same compound, the viability, T/C (second compound 0.01 µM, first compound 3.16 µM) was 19.2%, the viability, T/C (second compound 0.01 µM, first compound 10 µM) was 18.2% and the viability, T/C [10] was 20.3%. The viability, T/C [11] was 25.8%, the viability, T/C [12] was 19.4% and the viability, T/C [13] was 13.4%. The viability, T/C (second compound 0.0316 µM, first compound 3.16 µM) was 17.7%, the viability, T/C (second compound 0.0316 µM, first compound 10 µM) was 19.9% and the viability, T/C [14] was 22.1%. The viability, T/C [15] was 16.6%, the viability, T/C [16] was 21.6% and the viability, T/C [17] was 15.7%. The viability, T/C (second compound 0.1 µM, first compound 3.16 µM) was 18.3%, the viability, T/C (second compound 0.1 µM, first compound 10 µM) was 17% and the viability, T/C [18] was 20.8%. The viability, T/C [19] was 17.1%, the viability, T/C [20] was 18.1% and the viability, T/C [21] was 22.8%. It also gave a viability, T/C (second compound 0.316 µM, first compound 3.16 µM) of 17.3%, a viability, T/C (second compound 0.316 µM, first compound 10 µM) of 13.9% and a viability, T/C [22] of 21.6%. For the same compound, the viability, T/C [23] was 18.7%, the viability, T/C [24] was 27.5% and the viability, T/C [25] was 26.6%. It also gave a viability, T/C (second compound 1 µM, first compound 3.16 µM) of 19.7% and a viability, T/C (second compound 1 µM, first compound 10 µM) of 16.8%.
